In paper PMC5192521, “Flavin-Dependent Redox Transfers by the Two-Component Diketocamphane Monooxygenases of Camphor-Grown Pseudomonas putida NCIMB 10007” (Microorganisms, 2016) one finds Km, Kd and kcat data, which are given here for seven molecules.

As usually defined, the Km is the concentration of substrate that gives half-maximal velocity. Usually Kd stands for the concentration at which binding is half-saturated. What is called kcat is the number of substrate molecules converted per active site and unit of time at saturation.

The subject of data set [1] is T1, Frp1 (27.0 kDa ferric reductase).
T1 construct: native purification from camphor-grown cells; chromosome-coded
Description: initial rate of A340 decrease, Lineweaver-Burk. It counts as biochemical, Pseudomonas putida. To be noted: anaerobic, DCPIP as terminal acceptor.

Data set [2] has as its target T2, 2,5-DKCMO (2,5-diketocamphane monooxygenase; 25DKCMO).
T2 construct: gene camE25-1; oxygenating subunit, native purification from camphor-grown cells; CAM plasmid-coded; homodimer; nine Trp per monomer
Kind of data set: spectrophotometric titration at […] nm. The note with it: aerobic, Tris-HCl pH 7.6, 10 µM FMN. Type of data set: binding, Pseudomonas putida.

The subject of data set [3] is T3, Frp2 (28.5 kDa ferric reductase).
T3 construct: native purification from camphor-grown cells; chromosome-coded
Kind of data set: initial rate of A340 decrease, Lineweaver-Burk. The note with it: anaerobic, DCPIP as terminal acceptor. Type of data set: biochemical, Pseudomonas putida.

The target of data set [4] is T4, 3,6-DKCMO (3,6-diketocamphane monooxygenase; 36DKCMO) (Pseudomonas putida, UniProt D7UER1).
T4 construct: gene camE36; oxygenating subunit, native purification from camphor-grown cells; CAM plasmid-coded; homodimer; five Trp per monomer
T4 sequence (D7UER1 1-378): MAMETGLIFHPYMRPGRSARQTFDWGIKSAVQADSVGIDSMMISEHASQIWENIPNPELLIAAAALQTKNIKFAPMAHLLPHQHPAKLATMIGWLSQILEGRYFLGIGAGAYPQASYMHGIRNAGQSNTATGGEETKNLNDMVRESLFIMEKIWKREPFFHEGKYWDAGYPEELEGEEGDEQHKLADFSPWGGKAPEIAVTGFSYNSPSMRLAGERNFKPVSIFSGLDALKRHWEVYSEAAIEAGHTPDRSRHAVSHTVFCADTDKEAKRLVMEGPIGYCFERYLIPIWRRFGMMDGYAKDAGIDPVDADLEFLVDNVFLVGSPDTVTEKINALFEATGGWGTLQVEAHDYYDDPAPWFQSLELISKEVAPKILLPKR
Description: spectrophotometric titration at […] nm. It counts as binding.

Data set [5] has as its target T2, 2,5-DKCMO (2,5-diketocamphane monooxygenase; 25DKCMO). Description: tryptophan fluorescence quenching titration (ex […] nm, em […] nm). It counts as binding, Pseudomonas putida. To be noted: anaerobic, 60 mM Tris/HCl pH 7.6, 10 µM enzyme; FNR made by photoreduction with EDTA.
Data set [6] addresses T4, 3,6-DKCMO (3,6-diketocamphane monooxygenase; 36DKCMO). The data set is described as above. Type of data set: binding.
Substrate in data set [7]: NC(=O)C1=CN([C@@H]2O[C@H](COP(=O)(O)OP(=O)(O)OC[C@H]3O[C@@H](n4cnc5c(N)ncnc54)[C@H](O)[C@@H]3O)[C@@H](O)[C@H]2O)C=CC1
Kind of data set: initial rate of A340 decrease, Lineweaver-Burk. It counts as biochemical, Pseudomonas putida. The note with it: anaerobic.

Substrate in data set [8]: Cc1cc2nc3c(=O)[nH]c(=O)nc-3n(C[C@H](O)[C@H](O)[C@H](O)COP(=O)(O)O)c2cc1C
Kind of data set: initial rate of A340 decrease, Lineweaver-Burk. It counts as biochemical, Pseudomonas putida. To be noted: anaerobic, 60 mM Tris/HCl pH 7.6, NADH as donor, cytochrome c as terminal acceptor.

The mark [9] stands for this setting: 60 mM Tris/HCl pH 7.6, NADH as donor.
Setting [10] is: 60 mM Tris/HCl pH 7.6, FMN as acceptor.
Setting [11] is: 60 mM Tris/HCl pH 7.6, 10 µM putidaredoxin plus 30 µM cytochrome c as acceptor.

In the case of `Cc1cc2nc3c(=O)[nH]c(=O)nc-3n(C[C@H](O)[C@H](O)[C@H](O)COP(=O)(O)OP(=O)(O)OC[C@H]3O[C@@H](n4cnc5c(N)ncnc54)[C@H](O)[C@@H]3O)c2cc1C` [FAD], in data set [1] (60 mM Tris/HCl pH 7.6, NADH as donor, kcat as printed although text calls FAD activity much lower), the Km amounted to 68.8 µM.
As to `Cc1cc2nc3c(=O)[nH]c(=O)nc-3n(C[C@H](O)[C@H](O)[C@H](O)COP(=O)(O)O)c2cc1C` [FMN], the Kd in data set [2] is 109 µM; in data set [4], 125 µM. In addition, the Km in data set [1] (setting [9]) came out at 6.9 µM; in data set [3] (setting [9]) it was 8.6 µM.
Consider `Cc1cc2c(cc1C)N(C[C@H](O)[C@H](O)[C@H](O)COP(=O)(O)O)c1[nH]c(=O)[nH]c(=O)c1N2` [FNR], for which the Kd in data set [5] is 0.21 µM; in data set [6], 0.24 µM.
With `NC(=O)C1=CN([C@@H]2O[C@H](COP(=O)(O)OP(=O)(O)OC[C@H]3O[C@@H](n4cnc5c(N)ncnc54)[C@H](O)[C@@H]3O)[C@@H](O)[C@H]2O)C=CC1` [NADH], the Km in data set [1] (setting [10]) amounted to 23 µM; in data set [3] (setting [10]), 36 µM.
`NC(=O)C1=CN([C@@H]2O[C@H](COP(=O)(O)OP(=O)(O)OC[C@H]3O[C@@H](n4cnc5c(N)ncnc54)[C@H](OP(=O)(O)O)[C@@H]3O)[C@@H](O)[C@H]2O)C=CC1` [NADPH]: the Km in data set [3] (setting [10]) amounted to 92 µM.

B1: PdR (putidaredoxin reductase) (Pseudomonas putida) (protein)
chain: MNANDNVVIVGTGLAGVEVAFGLRASGWEGNIRLVGDATVIPHHLPPLSKAYLAGKATAESLYLRTPDAYAAQNIQLLGGTQVTAINRDRQQVILSDGRALDYDRLVLATGGRPRPLPVASGAVGKANNFRYLRTLEDAECIRRQLIADNRLVVIGGGYIGLEVAATAIKANMHVTLLDTAARVLERVTAPPVSAFYEHLHREAGVDIRTGTQVCGFEMSTDQQKVTAVLCEDGTRLPADLVIAGIGLIPNCELASAAGLQVDNGIVINEHMQTSDPLIMAVGDCARFHSQLYDRWVRIESVPNALEQARKIAAILCGKVPRDEAAPWFWSDQYEIGLKMVGLSEGYDRIIVRGSLAQPDFSVFYLQGDRVLAVDTVNRPVEFNQSKQIITDRLPVEPNLLGDESVPLKEIIAAAKAELSSA
notes: native purification from camphor-grown cells; FAD flavoprotein; CAM plasmid-coded
Take B1: in data set [7] (setting [11]), the Km was found to be 5.9 µM and the kcat is 102 s⁻¹.

B2: Fred (Pseudomonas putida) (protein)
chain: TKVAAEIVRSAIDPQWFRAVLGQYPTGVCAVTAMDPDGKMSGMAVGSFTSVSLNPPLVAFLPDRSSTSWPKIERAGKFCVNVLSDQQLGVCKRFASKDEDKFSGLVYRLSDNGSPIIEGVVAWIDCDLHSVQEAGDHYIVIGSVRELQVESEDSALLFYRGGYGGFAAI
notes: native purification from camphor-grown cells; chromosome-coded; 36 kDa homodimer
Regarding B2, the Km in data set [8] amounted to 4.2 µM; in data set [7] (60 mM Tris/HCl pH 7.6, FMN as acceptor, cytochrome c as terminal acceptor), 28 µM. In addition, in data set [8], the kcat turned out to be 294 s⁻¹.
